What was measured:
Type in all cases: cell-based
[1] = test system: HEK293T, HeLa or primary cervical epithelial cells; test: Confocal microscopy of biotinylation after glycomap experiment; conditions: after Ac4ManNAz, 5 μM reagent, irradiation in presence of biotin-diazirine
Method: Cells (HEK293T, HeLa or primary cervical epithelial cells) (approx. 2×10^4 cells) were incubated in poly-lysine coated 8 well chamber slides in complete DMEM (200 μL) containing Ac4ManNAz (100 μM) at 37° C. for 48 hours. The cells were washed with DPBS (3×200 μL) and then incubated in complete DMEM (200 μL) containing DBCO-iridium (5 μM) or DBCO-biotin (5 μM) at 37° C. for 24 hours. The cells were washed with DPBS (3×200 μL) and irradiated in DMEM (no phenol-red, 200 μL) containing biotin-diazirine (250 μM) at room temperature for 20 minutes in the biophotoreactor (blue LEDs). The cells were washed with DPBS (3×200 μL) and fixed with prewarmed 4% paraformaldehyde (200 μL) at room temperature for 30 min. The cells were washed with DPBS (2×200 μL) and blocked with 3% BSA in DPBS (200 μL) at room temperature for 1 hour. The blocking buffer was replaced with fresh 3% BSA in DPBS (200 μL) containing Hoechst (1:1000), and Streptavidin-AlexaFluor 555 conjugate (1:1000). The cells were stained in the dark at room temperature for 1 hour and then stored in the dark at 4° C. The cells were imaged on a NIKON A1R-SI microscope (Nikon Instruments, Inc., Melville, NY) at 20× magnification. The images were processed with Fiji-ImageJ. Images shown are representative of the multiple cross-sectional images taken during each session.

[2] = test system: sialylated cell-surface glycoproteins of HeLa cells; test: Glycomap labeling efficiency by streptavidin western blot densitometry; conditions: for Experiment/control: ratio of densitometry readouts
Method: HeLa cells (approx. 0.4×10^6 cells) were incubated in 6 well dishes in complete DMEM (2 mL) containing Ac4ManNAz (100 μM) at 37° C. for 72 hours. The cells were washed with DPBS (3×1 mL) and then incubated in complete DMEM (2 mL) containing DBCO-iridium (5 μM) or DBCO-biotin (5 μM) at 37° C. for 24 hours. The cells were washed with DPBS (3×1 mL) and irradiated in DMEM (no phenol-red, 200 μL) containing biotin-diazirine (250 μM) at room temperature for 20 minutes in the biophotoreactor (blue LEDs). The cells were washed with DPBS (3×1 mL), scraped in DPBS (1 mL), and transferred to 1.5 mL Eppendorf tubes. The cells were pelleted at 400×G for 5 minutes and resuspended in Ripa lysis buffer (500 μL). The cells were lysed by sonication (bioruptor) at 4° C. for 10 minutes (20 cycles, 15 sec on 15 sec off at 100% power). The protein concentration was normalized by BCA assay and the lysate was analyzed by Western blot (20 μg of protein per lane, 12% gel, 150 V). The gel was transferred via iBlot 2 to an NC membrane Following transfer, the membrane was immersed in Odyssey Blocking Buffer (Li-Cor, 927-50000) and incubated at room temperature for 1 hour. The blocking buffer was replaced with fresh blocking buffer (10 mL) containing anti-Actin antibody (10 μL) and the membrane was rocked for 1 hour. The buffer was decanted, and the membranes were washed with 1×TBST (4×5 min) and water (3×5 sec). […]
Based on the Western blot results shown in FIG. 2B the efficiency of labeling via Glycomap can be calculated using densitometry. […]
The whole calculation is listed below: • Densitometry readout DBCO-Iridium full experiment: 108′442 • Densitometry readout DBCO-Iridium control: 6′164 • Experiment/control: 17.6 • Densitometry readout DBCO-Biotin full experiment: 158′335 • Densitometry readout DBCO-Biotin control: 5′937 • Experiment/control: 26.7 • Comparison: 17.6/26.7=0.7 tags per catalyst.

HeLa cells [3] = test: Colorimetric zinc assay
Method: The zinc assay was purchased from Abcam (ab102507), and the experiment was performed according to the procedure below, adapted from the supplier's instructions.
In transparent 10 cm dishes, HeLa cells were grown in complete medium (DMEM, supplemented with 10% FBS) in presence (×3) or absence (×3) of VC-sialidase (20 mU/mL medium) for 96 hours. The medium was exchanged every 24 hours and fresh sialidase was added at those timepoints. After 96 hours, the medium was removed and DPBS (5 mL) was added. The cells were scraped, transferred to 15 mL conical tubes, and pelleted at 400×g for 5 minutes. The supernatant was removed, and the cells were lysed in 50 μL EDTA-free lysis buffer lysed by sonication (bioruptor) at 4° C. for 10 minutes.
The lysate was clarified at 18′000×g for 15 minutes and analyzed by BCA assay. 30 µL of the cell lysate was transferred to a 1.5 mL Eppendorf tube containing 30 μL of 7% TCA to precipitate proteins. The mixture was clarified at 18′000×g for 5 minutes and […] of the resulting solution were used for the zinc detection assay.

HeLa cells [4] = test: Mass spectrometry-based metabolomic quantification of sialidase-treated cells; conditions: sialidase-treated vs untreated HeLa cells, 72 hours
Method: In transparent 10 cm dishes (×6), HeLa cells were grown for 72 hours in 5 mL complete DMEM supplemented with 10% FBS in presence or absence of neuraminidase (20 U/mL). After 72 hours, the cells were washed with DPBS (3×5 mL) and incubated with TrypLE (1 mL) for 15 minutes at 37° C. The cells were transferred to 15 mL conical tubes using 4 mL DPBS to wash the plates. The cells were pelleted at 500×G for 4 minutes and resuspended in 1 mL DPBS. The cells were counted, and 500′000 cells/experiment were transferred to 1.5 mL Eppendorf tubes. The cells were pelleted (500×g for 4 min), the supernatant removed, and the cells were lysed with ice cold 80% MeOH (60 μL) for 30 minutes at 0° C. The cell lysate was clarified by centrifugation at 20′000×G for 25 minutes and the lysates were transferred to new 0.5 mL Eppendorf tubes and stored at −80° C. until mass spectrometry analysis.
HPLC-grade water, methanol, and acetonitrile were obtained from Thermo Fisher Scientific. Supernatant sample was thawed at room temperature and kept at 4° C. in an autosampler. Samples were analyzed using a Q Exactive Plus mass spectrometer coupled to Vanquish UHPLC system (Thermo Fisher Scientific). LC separation was achieved using a XBridge BEH Amide column (2.1 mm×150 mm, 2.5-μm particle size, 130-A pore size; Waters, Milford, MA, USA) using a gradient of solvent A (20 mM ammonium acetate+20 mM ammonium hydroxide in 95:5 water/acetonitrile [pH 9.45]) and solvent B (acetonitrile). Flow rate was […]. The gradient was 0 min, 90% B; 2 min, 90% B; 3 min, 75%; 7 min, 75% B; 8 min, 70%, 9 min, 70% B; 10 min, 50% B; 12 min, 50% B; 13 min, 25% B; 14 min, 25% B; 16 min, 0% B, 20.5 min, 0% B; 21 min, 90% B; 25 min, 90% B. The column temperature was 25° C., and the injection volume was 5 μL. The mass spectrometer is operated in full scan mode with separate runs in positive mode and negative mode covering m/z 70-1000, with resolution 140,000 at m/z 200, AGC target 5E6, maximum injection time 200 ms.
Data analyses were performed using El-Maven and the metabolites identified with an in-house library using authentic standards.^3 Metabolite signal intensity were then further processed in Excel (median correction) and Graphpad Prism (transformation, t-test, and volcano plot generation).

Row | Molecule | biotinylation by confocal microscopy [1] | Experiment/control [2] | Zinc concentration (nmol zinc/mg of protein-free lysate) (HeLa cells [3]; HeLa cells, VC-sialidase 20 mU/mL medium, 96 hours, single replicates) [nmol/mg] | zinc level vs untreated cells (HeLa cells [3]; sialidase-treated vs untreated HeLa cells) | level of cytidine diphosphate choline (CDP-choline) (HeLa cells [4]) | level of cytidine diphosphate ethanolamine (CDP-Etn) (HeLa cells [4]) | level of phosphate ethanolamine (P-Etn) (HeLa cells [4]) | most metabolite levels (HeLa cells [4]) | tags per catalyst (labeling efficiency) ([2]; HeLa cells, Ac4ManNAz 100 μM, streptavidin blot densitometry, relative to DBCO-biotin) [tags per catalyst]
1 | O=C(CCCC[C@@H]1SC[C@@H]2NC(=O)N[C@@H]21)NCC(C(=O)NCCC(=O)N1Cc2ccccc2C#Cc2ccccc21)S(=O)(=O)O (some centres unmarked) [DBCO-biotin, DBCO-Sulfo-Link-biotin, reference compound] | strong biotinylation | 26.7 | – | – | – | – | – | – | –
2 | VC-Sia: sialidase isolated from Vibrio cholerae, cleaves α2,3-, α2,6-, or α2,8-linked sialic acids | – | – | 1.4 | significantly higher | significantly increased | significantly increased | significantly increased | minimally affected | –
3 | [Ir(dCO2HdFCF3ppy)2(bpy-dbco) [DBCO-iridium] | strong biotinylation | 17.6 | – | – | – | – | – | – | 0.7

Source: patent US20260177556A1, “PROXIMITY-BASED LABELING OF SIALYLATED GLYCOPROTEINS” (THE TRUSTEES OF PRINCETON UNIVERSITY, priority 2022, published 2026)
